According to US5356880A, “Glycyrrhetinic acid derivatives” (priority 1991, dated 1994):
Read-outs that look alike come from different tables or passages of the source.

Key:
[1] = system: HSV-1 (Miyama strain); test: In vitro antiviral action on cells infected with HSV-1 (Miyama strain), CPE inhibition, TCID50; assay type: cell-based, Herpes simplex virus type 1; conditions: Human alphaherpesvirus 1, GMK cells, read-out: Antiviral Activity (ΔTCID50)
[2] = system: HSV-1 (KOS strain); test: microbe, parasite or virus in culture; assay type: cell-based, Herpes simplex virus type 1; conditions: Human alphaherpesvirus 1, Vero, read-out: Antiviral Activity (ΔTCID50)
[3] = system: HSV-2 (UW-268 strain); test: microbe, parasite or virus in culture; assay type: cell-based, Herpes simplex virus type 2; conditions: Human alphaherpesvirus 2, Vero, read-out: Antiviral Activity (ΔTCID50)
[4] = system: vaccinia viruses (D1E strain); test: microbe, parasite or virus in culture; assay type: cell-based; conditions: Orthopoxvirus vaccinia, Vero, read-out: Antiviral Activity (ΔTCID50)
[5] = system: influenza viruses (A/PR/8 strain); test: microbe, parasite or virus in culture; assay type: cell-based, influenza virus A/PR/8; conditions: unidentified influenza virus, PR/8, MDCK, read-out: Antiviral Activity (ΔTCID50)
[6] = Acute toxicity testing, oral, mice (LD50, Litchfield-Willcoxon); conditions: mouse, in vivo, ICR male mice, 7 days observation
Text: The compounds to be tested in the form of a 2% aqueous solution of Tween 80 were orally administrated to ICR male mice (weights: 24-30 g), five for each group.

[7] = system: GMK cells
[8] = system: Vero cells
[9] = system: influenza viruses; conditions: in vivo; cited from earlier work

With `COc1ccccc1N1CCN(C(=O)[C@@]2(C)CC[C@]3(C)CC[C@]4(C)C(=CC[C@@H]5[C@@]6(C)CC[C@H](O[C@H]7O[C@H](C(=O)O)[C@@H](O)[C@H](O)[C@H]7O[C@@H]7O[C@H](C(=O)O)[C@@H](O)[C@H](O)[C@H]7O)C(C)(C)[C@@H]6CC[C@]54C)[C@@H]3C2)CC1` [Comp. Ex. 37, 30-(N-2-(4-(2-methoxylphenyl)piperazine-1-yl)carbonyl)-18β-olean-12-en-3β-yl-2-O-β-D-glucuronyl-α-D-gluconic acid] the log reduction at 1 µg/mL ([1]; 1 μg/ml) was 1.94, the log reduction at 5 µg/mL ([1]; 5 μg/ml) was > 3.17 and the log reduction at 25 µg/mL ([1]; 25 μg/ml) was > 3.73. For the same molecule, the log reduction at 1 µg/mL [2] was 2.74, the log reduction at 5 µg/mL [2] was 2.65 and the log reduction at 25 µg/mL [2] was > 3.25. The log reduction at 1 µg/mL [3] was 1.87, the log reduction at 5 µg/mL [3] was 3.01 and the log reduction at 25 µg/mL [3] was > 3.85. It also gave a log reduction at 1 µg/mL [4] of 1.49, a log reduction at 5 µg/mL [4] of 2.85 and a log reduction at 25 µg/mL [4] of 2.61. The log reduction at 1 µg/mL [5] was 1.64, the log reduction at 5 µg/mL [5] was 1.7 and the log reduction at 25 µg/mL [5] was 2.38. For the same molecule, the LD50 at 168 h [6] was > 1000 mg/kg, the magnitude of cytotoxicity ([7]; 1 μg/ml) was “-” and the magnitude of cytotoxicity ([7]; 5 μg/ml) was “-”. The magnitude of cytotoxicity ([7]; 25 μg/ml) was “-” and the magnitude of cytotoxicity [8] was “-”.
In the case of `N#CNc1nncs1` [LY253963], the “effect on influenza viruses in animal tests” value [9] is listed as “resistant to influenza viruses in animal tests”.
